Test results: patent publication US12209180B2, “Bis-octahydrophenanthrene carboxamide derivatives and protein conjugates thereof for use as LXR agonists” (REGENERON PHARMACEUTICALS, INC., priority 2018, dated 2025)
Read-outs that look alike come from different tables or passages of the source.

How the values were obtained:
[1] = tested on: T1, LXR; experiment: Cell-based LXR luciferase reporter assay, LXR agonists (Example 16a); set-up: species or system human; settings: Table 5a; for EC50: differentiated THP-1/LXR-Luc cells, 48 h; for S/N: highest RLU on dose response curve / RLU in untreated wells
T1 construct: EC50 (M); S/N; other: differentiate
Experimental: LXR agonists described herein were evaluated in a cell-based LXR responsive luciferase reporter assay. To generate the assay cell line, an LXR regulated luciferase reporter gene [Cignal Lenti LXR Reporter (luc) kit (Qiagen, Cat #CLS-001L)] was transduced into THP1 cells and the cells were selected for two weeks in puromycin. The lentivirus expresses the firefly luciferase gene under the control of a basal promoter and tandem repeats of the LXR transcriptional response element. The resulting cell line is referred to as THP1/LXR-Luc cells. For the assay, THP1/LXR-Luc cells were seeded onto 96-well plates at 40,000 cells/well in media containing RPMI supplemented with 10% FBS and penicillin/streptomycin and were then differentiated with 200 nM Phorbol Myristate Acetate (PMA) for 3 days. The media was subsequently removed and replaced with 80 μL of fresh media without PMA. Three-fold serial dilutions of free payloads were prepared in 100% DMSO, transferred to fresh growth media, and 20 μL were added to the cells at a final constant DMSO concentration of 0.2% and free payloads at final concentrations ranging from 100 nM to 0.015 nM. The last well in the plate served as blank control containing only the media and 0.2% DMSO (untreated well) and was plotted as a continuation of the 3-fold serial dilution. Forty-eight hours later, luciferase activity was determined after the addition of One-Glo™ reagent (Promega, Cat #E6130) to each well. Relative light units (RLUs) were measured on an Envision luminometer (PerkinElmer) and EC50 values were determined using a four-parameter logistic equation over a 10-point dose response curve (GraphPad Prism). The signal to noise (S/N) was determined by taking the ratio of the highest RLU on the dose response curve to the RLU in the untreated wells.

[2] = Stability of isolated compound in buffer; assay type: physicochemical; settings: HCl salt; even under basic buffer (pH>7)
Experimental: To a solution compound 141 (0.30 g, 0.33 mmol) in acetonitrile (5 mL) was added a solution of HCl in dioxane (4 N, 3 mL). The reaction mixture was stirred at room temperature for 3 hours until Boc was totally removed according to LCMS. The volatiles were removed, and the residue was purified by reversed phase flash chromatography (0-100% acetonitrile in water) to give compound 142 as HCl salt (0.19 g, 73% yield), as a white solid, which was not stable, even under basic buffer (pH>7). ESI m/z: 717.2 (M+H)^+.

[3] = tested on: THP-1; experiment: Activation of cholesterol efflux (BODIPY-cholesterol) in differentiated THP1 macrophages; assay type: cell-based, human
Experimental: The ability of anti-MSR1-LXR agonist ADCs to activate cholesterol efflux in a human macrophage cell line (THP-1; ATTC Catalog #TIB-202) were assessed using a fluorescent cholesterol analog. […] Cells were differentiated into macrophages by treatment with 100 nM Phorbol-12 myristate 13-acetate (Sigma, Catalog #P8139), which was added to the media (described above), for 96 hours. […] Percentage of BODIPY-cholesterol efflux was calculated using the following formula: [fluorescence in acceptor media/(fluorescence in acceptor media+fluorescence in cell lysate)]×100.

[4] = Solubility in water; assay type: physicochemical
[5] = tested on: T1, LXR; experiment: THP1/LXR-Luc reporter assay, anti-MSR1 LXR agonist ADCs (Example 17); assay type: cell-based, human; settings: differentiated THP-1/LXR-Luc cells, Table 6
[6] = Homo sapiens, THP-1, after 24 hours, read-out: cholesterol efflux EC50
[7] = Homo sapiens, differentiated THP-1 macrophages, 24-hour treatment, Table 8, read-out: Cholesterol Efflux activation EC50

Molecule	EC50 [1]	S/N [1]	other results
C[C@H](NC(=O)[C@@H](N)CCC(=O)O)C(=O)Nc1ccc2c(c1)[C@@]1(C)CCC[C@](C)(C(=O)NC(=O)[C@@]3(C)CCC[C@]4(C)c5cc(O)ccc5CC[C@@H]34)[C@@H]1CC2 [P16, (4S)-4-Amino-4-{[(1S)-1-{[(4bS,8S,8aR)-8-({[(1S,4aS,10aR)-6-hydroxy-1,4a-dimethyl-1,2,3,4,4a,9,10,10a-octahydrophenanthren-1-yl]formamido}carbonyl)-4b,8-dimethyl-4b,5,6,7,8,8a,9,10-octahydrophenanthren-3-yl]carbamoyl}ethyl]carbamoyl}butanoic acid]	0.508 nM	11.5	
CNCCN(CCOCCO)C(=O)Oc1ccc2c(c1)[C@@]1(C)CCC[C@](C)(C(=O)NC(=O)[C@@]3(C)CCC[C@]4(C)c5cc(N)ccc5CC[C@@H]34)[C@@H]1CC2.Cl.Cl [compound 142, (4bS,8S,8aR)-8-((1S,4aS,10aR)-6-Amino-1,4a-dimethyl-1,2,3,4,4a,9,10,10a-octahydrophenanthrene-1-carbonylcarbamoyl)-4b,8-dimethyl-4b,5,6,7,8,8a,9,10-octahydrophenanthren-3-yl 2-(2-hydroxyethoxy)ethyl(2-(methylamino)ethyl)carbamate]			stability [2]: not stable
C[C@]1(C(=O)NC(=O)[C@@]2(C)CCC[C@]3(C)c4cc(O)ccc4CC[C@@H]23)CCC[C@]2(C)c3cc(N)ccc3CC[C@@H]12 [P1, (1S,4aS,10aR)-N-[(1S,4aS,10aR)-6-Amino-1,4a-dimethyl-1,2,3,4,4a,9,10,10a-octahydrophenanthrene-1-carbonyl]-6-hydroxy-1,4a-dimethyl-1,2,3,4,4a,9,10,10a-octahydrophenanthrene-1-carboxamide]	0.191 nM	11.9	EC50 [3, 6]: 0.02 nM; EC50 [3, 7]: 0.02 nM
C[C@]1(C(=O)NC(=O)[C@@]2(C)CCC[C@]3(C)c4cc(NC(=O)COCNC(=O)CN)ccc4CC[C@@H]23)CCC[C@]2(C)c3cc(O)ccc3CC[C@@H]12 [P18, (1S,4aS,10aR)-N-[(1S,4aS,10aR)-6-{2-[(2-aminoacetamido)methoxy]acetamido}-1,4a-dimethyl-1,2,3,4,4a,9,10,10a-octahydrophenanthrene-1-carbonyl]-6-hydroxy-1,4a-dimethyl-1,2,3,4,4a,9,10,10a-octahydrophenanthrene-1-carboxamide]	2.78 nM	11.5	
CC(C)[C@H](NC(=O)[C@@H](CCCCNC(=O)COC1CCCCCc2c1nnn2CC1OC2OC3C(CO)OC(OC4C(CO)OC(OC5C(CO)OC(OC6C(CO)OC(OC7C(CO)OC(OC1C(O)C2O)C(O)C7O)C(O)C6O)C(O)C5O)C(O)C4O)C(O)C3O)NC(=O)CCOCCOCCOCCOCCNC(=O)CCC(=O)N1Cc2ccccc2C#Cc2ccccc21)C(=O)N[C@@H](CCCNC(N)=O)C(=O)Nc1ccc2c(c1)[C@@]1(C)CCC[C@](C)(C(=O)NC(=O)[C@@]3(C)CCC[C@]4(C)c5cc(N)ccc5CC[C@@H]34)[C@@H]1CC2 (stereo partly drawn) [LP2]			solubility [4]: < 100 µg/mL
C[C@]1(C(=O)NC(=O)[C@@]2(C)CCC[C@]3(C)c4cc(NC(=O)CO)ccc4CC[C@@H]23)CCC[C@]2(C)c3cc(N)ccc3CC[C@@H]12 [P14, (1S,4aS,10aR)-N-[(1S,4aS,10aR)-6-(2-hydroxyacetamido)-1,4a-dimethyl-1,2,3,4,4a,9,10,10a-octahydrophenanthrene-1-carbonyl]-6-amino-1,4a-dimethyl-1,2,3,4,4a,9,10,10a-octahydrophenanthrene-1-carboxamide]	0.152 nM	10.8	
C[C@H](N)C(=O)Nc1ccc2c(c1)[C@@]1(C)CCC[C@](C)(C(=O)NC(=O)[C@@]3(C)CCC[C@]4(C)c5cc(N)ccc5CC[C@@H]34)[C@@H]1CC2 [P13, (1S,4aS,10aR)-N-[(1S,4aS,10aR)-6-amino-1,4a-dimethyl-1,2,3,4,4a,9,10,10a-octahydrophenanthrene-1-carbonyl]-6-[(2S)-2-aminopropanamido]-1,4a-dimethyl-1,2,3,4,4a,9,10,10a-octahydrophenanthrene-1-carboxamide]	0.0788 nM	11.9	
CC(C)(C)OC(=O)Nc1ccc2c(c1)[C@@]1(C)CCC[C@](C)(C(=O)NC(=O)[C@@]3(C)CCC[C@]4(C)c5cc(O)ccc5CC[C@@H]34)[C@@H]1CC2 [P15, tert-Butyl N-[(4bS,8S,8aR)-8-({[(1S,4aS,10aR)-6-hydroxy-1,4a-dimethyl-1,2,3,4,4a,9,10,10a-octahydrophenanthren-1-yl]formamido}carbonyl)-4b,8-dimethyl-4b,5,6,7,8,8a,9,10-octahydrophenanthren-3-yl]carbamate]	72.9 nM	8.8	
C[C@]1(C(=O)NC(=O)[C@@]2(C)CCC[C@]3(C)c4cc(N)ccc4CC[C@@H]23)CCC[C@]2(C)c3cc(N)ccc3CC[C@@H]12 [P2, (1S,4aS,10aR)-6-Amino-N-((1S,4aS,10aR)-6-amino-1,4a-dimethyl-1,2,3,4,4a,9,10,10a-octahydrophenanthrene-1-carbonyl)-1,4a-dimethyl-1,2,3,4,4a,9,10,10a-octahydrophenanthrene-1-carboxamide]	0.45 nM	13.1	EC50 [3, 6]: 0.014 nM; EC50 [3, 7]: 0.014 nM
C[C@]1(C(=O)NC(=O)[C@@]2(C)CCC[C@]3(C)c4cc(NC(=O)CO)ccc4CC[C@@H]23)CCC[C@]2(C)c3cc(O)ccc3CC[C@@H]12 [P17, (1S,4aS,10aR)-N-[(1S,4aS,10aR)-6-(2-hydroxyacetamido)-1,4a-dimethyl-1,2,3,4,4a,9,10,10a-octahydrophenanthrene-1-carbonyl]-6-hydroxy-1,4a-dimethyl-1,2,3,4,4a,9,10,10a-octahydrophenanthrene-1-carboxamide]	1.03 nM	12.5	
C[C@]1(C(=O)NC(=O)[C@@]2(C)CCC[C@]3(C)c4cc(N)c(O)cc4CC[C@@H]23)CCC[C@]2(C)c3cc(O)ccc3CC[C@@H]12 [P19, (1S,4aS,10aR)-N-[(1S,4aS,10aR)-6-amino-7-hydroxy-1,4a-dimethyl-1,2,3,4,4a,9,10,10a-octahydrophenanthrene-1-carbonyl]-6-hydroxy-1,4a-dimethyl-1,2,3,4,4a,9,10,10a-octahydrophenanthrene-1-carboxamide]	0.564 nM	11.4	
H1H21234N-N297Q-LP1 (conjugate) VH: QVQLQESGPGLVKPSETLSLTCTVTGGSISRNYWSWIRQPPGKGLEWIGYIYYSGSIDYNPSLKSRVTISVDTSKNQFSLKLSSMTAADTAVYYCARDRWNWKYGMDVWGQGTTVIVSS VL: EIVLTQSPGTLSLSPGERATLSCRASQTVRNNYLAWYHQKPGQAPRLLIYGASSRATGIPDRFSGSGSGTDFTLTISRLEPEDFTVYYCHQYGNSPWTFGQGTKMEIKR			EC50 [5]: 0.738 nM; S/N [5]: 11.8; EC50 ([3]; after 24 hours, read-out: cholesterol efflux EC50): 0.098 nM
